Source: patent US12612403B2, “Nitrogen-containing heterocyclic derivative inhibitor, and preparation method therefor and use thereof” (SHANGHAI HANSOH BIOMEDICAL CO., LTD., priority 2024, dated 2026)

Columns and labels:
[1] = tested on: PCSK9 secreted by HepG2 cells; experiment: Effect on the concentration of PCSK9 secreted by HepG2 cells (ELISA); format: cell-based; settings: Homo sapiens, 48 hours, PCSK9 in culture medium by ELISA
Method in brief: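 HepG2 cells treated with compound for 48 h at 37° C., 5% CO2. Secreted PCSK9 in medium quantified by sandwich ELISA (HRP detection, OD 450 nm) against a 0–10 ng/mL standard curve. Inhibition relative to control; IC50 fitted from concentration–inhibition data.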

[2] = In vitro metabolic stability in human liver microsomes; format: in vitro ADME; settings: pH 7.4
Experimental: 1. Experimental objective: The purpose of this experiment was to evaluate the metabolic stability of the compounds in phase I and partially phase II in mouse, rat and human liver microsomes, respectively.
2.1 Drug preparation: 10 mM stock solution of the compound of the present disclosure was prepared in DMSO (or other suitable solution) and stored in a −20° C. refrigerator for later use. The compound of the present disclosure was made in house.
2.2 Experimental steps • 1) Preparation of buffer: 4.01 mL of 1 M K2HPO4·3H2O (AR grade) and 0.99 mL of 1 M KH2PO4 (AR grade) were dissolved in ultrapure water and the volume was adjusted to 50 mL to prepare a phosphate buffer with a final concentration of 100 mM. • 2) Preparation of compound working solution: Preparation of compound working solution: 2 μL of the compound stock solution was added to 998 μL of phosphate buffer to a final concentration of 20 μM. According to the properties of the compound, the preparation proportions could be adjusted appropriately to adjust the final concentration. • 3) Preparation of liver microsome working solution: 156.3 μL of 20 mg/mL microsomes were diluted to 5 mL with 100 mM phosphate buffer, and the mixture was mixed well to reach a final concentration of 0.625 mg/mL. • 4) Preparation of NADPH and UDPGA: 33.3 mg of NADPH and 25.8 mg of UDPGA were weighed and added to 2 mL of 100 mM phosphate buffer to reach a final concentration of 20 mM. • 5) Preparation of pore-forming agent (Alamethicin): 1 mg of Alamethicin was weighed and added to 200 μL of methanol to prepare a 5 mg/mL solution. 10 μL of the solution was taken and added to 990 μL phosphate buffer (pH 7.4) to reach a final concentration of 50 μg/mL. • 6) Preparation of reaction stop solution: The internal standard was diluted with acetonitrile (or other suitable solution) to use as a stop solution and stored in a 2° C.-8° C. refrigerator. • 7) Incubation process: 400 μL of the prepared liver microsomes, 25 μL of the compound working solution (20 μM) and 25 μL of Alamethicin (50 μg/mL) were successively added to the 96-well plate, and the mixture was pre-incubated at 37° C. for 10 min. Then, 50 μL of prepared NADPH/UDPGA was added to start the reaction, and the mixture was incubated at 37° C. The total volume of the reaction system was 500 μL. The final contents of each component were as follows:
50 μL of samples were taken at 0, 5, 15, 30, 60 and 120 min, respectively, 200 μL of a cold stop solution containing the internal standard was added to stop the sample reaction, the mixture was centrifuged at 3500 rpm for 10 min, and the supernatant was taken and analyzed by LC-MS/MS.
Instruments: Shimadzu LC-20 AD; Chromatographic column: Phenomenex Gamin® C18 (50*4.6 mm, 5 μm particle size); mobile phase: A: 0.1% aqueous formic acid, B: acetonitrile; Elution gradient: 0.2-1.6 min, […], 3.0-3.1 min, 95% A to 5% A; Flow rate: 1.0 ml/min; Run time: 4.0 min; Injection volume: 5 μL.
Instruments: AP14000 liquid chromatography mass spectrometer, AB Sciex; Ion source: electrospray ionization source (ESI); Drying gas: N2, temperature 500° C.; Electrospray voltage: 5000 V; Detection mode: positive ion detection; Scanning mode: Reaction Monitoring (MRM) mode; Scanning time: 0.8401 s.
3. Data processing: The raw data were calculated according to the following formula: […]
The in vitro liver microsome intrinsic clearance rate (CLint) and liver intrinsic clearance rate (CLint,liver) were calculated by Ke.

| SMILES | IC50 [1] | half-life at 1 µM [2] | microsomal CLint at 1 µM [2] |
| --- | --- | --- | --- |
| O=C1c2ncccc2CN1c1cnc(N[C@H]2CC[C@H](Nc3nc4cc(OC(F)F)ccn4n3)C2)c(F)c1 [Example 151] | 12.7 µM | 11.8 h | 1.9 µL/min/mg |
| O=c1nc(O)ccn1-c1ccc(N[C@H]2CC[C@H](Nc3nc4cc(C(F)(F)F)ccn4n3)C2)nc1 [Example 78, 4-hydroxy-1-(6-(((1S,3S)-3-((7-(trifluoromethyl)-[1,2,4]triazolo[1,5-a]pyridin-2-yl)amino)cyclopentyl)amino)pyridin-3-yl)pyrimidin-2(1H)-one] | 33.1 µM | 13.2 h | 1.75 µL/min/mg |
| O=c1nc(O)ccn1-c1cnc(N[C@H]2CC[C@H](Nc3nc4cc(C(F)(F)F)ccn4n3)C2)c(F)c1 [Example 183] | 4.8 µM | 23 h | 1 µL/min/mg |
